The values below come from US4678792A, “Quaternary 3,4-dihydro-isoquinolinium salts” (Dr. Karl Thomae GmbH, priority 1984, dated 1987).

Series [1] can be described thus: Tolerability: toxic side effects at the maximum dosages administered. The series is classed as in vivo.
In series [2] the test system is Thrombocyte aggregation. The experiment in a line: Antithrombotic activity: collagen-induced thrombocyte aggregation in platelet-rich plasma after oral administration (Born and Cross). The conditions noted are these: for inhibition at 10 mg/kg / inhibition at 5 mg/kg: po, read-out: Percentage inhibition of aggregation. The series is classed as in vivo, rat. As for the experimental part:
1. Antithrombotic activity (see BORN and CROSS, J. Physiol. 170, 397 (1964)):
Groups of three male rats weighing about 500 g are given the test substances, suspended in 1% tylose (A and B) or in distilled water (C), in a volume of 0.2 ml per 100 g of the weight of the animal, by esophageal tube. Shortly before the blood samples are taken (1 hour after administration of the substance) the animals are anesthetised with sodium pentobarbital (50 mg/kg i.p.). After the abdomen has been opened up, the required quantity of blood is taken by puncturing the aorta.
The blood is treated with sodium citrate (0.2% final concentration) to prevent it coagulating. Since the aggregation before and after administration of the substance in rats cannot be measured in the same animal, sets of animals from which the plasma has been pooled are compared. In this way, multiple measurements can be made.
Thrombocyte aggregation is measured in platelet-rich plasma (PRP) (quantity of plasma for each test: 1 ml). In order to obtain the PRP, the blood is centrifuged for 10 minutes at 1,000 to 1,200 revolutions per minute (approx. 150 g). The low-platelet plasma for calibrating the aggregometer is obtained by centrifuging (4,000 rpm for 10 minutes).
The pattern of the decrease in optical density of the platelet suspension after the addition of collagen is measured photometrically and recorded. The height of the curve in mm measured at the moment of maximum light transmittance is the measurement of the intensity of aggregation. A 6-channel aggregometer is used for the measurements.
The quantity of collagen (2 to 5 μl/ml of plasma) is such that an irreversible reaction curve is obtained.
The sets of animals treated with the substance are compared with untreated control groups.

Series [3] has as its system mouse. Briefly: Approximate acute toxicity on the mouse after oral administration. The series is classed as in vivo. The conditions noted are these: 250 mg/kg oral, group of 10 animals, observation period of 14 days. As for the experimental part:
The approximate acute toxicity of substance B is tested on the mouse after oral administration of a dosage of 250 mg/kg to a group of 10 animals.

Where [4] appears, read: maximum dosages administered (10 mg/kg p.o.).
Where [5] appears, read: 10 mg/kg p.o., rat, 1 hour after administration, collagen, control 130 (A), 110 (B).
Where [6] appears, read: 5 mg/kg p.o., rat, 1 hour after administration, collagen, control 108 (B), 113 (C).

Where two headings read alike, the source gives them in different places.

Consider `COc1cc2c(cc1OC)CC[N+](Cc1ccccc1Cl)=C2.O=S(=O)([O-])O` [A, 2-(2-Chlorobenzyl)-6,7-dimethoxy-3,4-dihydro-isoquinolinium hydrogensulphate], for which, in series [1] (setting [4]), the toxic side effects result is recorded as “do not show any toxic side effects”. Moreover, the “Intensity of Aggregation, Height of curve (opt. density), Substance” value (“Intensity of Aggregation” for short) in series [2] (setting [5]) is recorded as 69 mm. Also, the inhibition at 10 mg/kg in series [2] (Rattus norvegicus, 1 h) came to 47%.

As for `Clc1ccccc1C[N+]1=Cc2ccccc2CC1.O=S(=O)([O-])O` [B, 2-(2-Chlorobenzyl)-3,4-dihydro-isoquinolinium hydrogensulphate], in series [1] (setting [4]), the toxic side effects result is recorded as “do not show any toxic side effects”. Further, the “Intensity of Aggregation” value in series [2] (setting [6]) is 0 mm. For the same molecule, the “Intensity of Aggregation” value in series [2] (setting [5]) amounted to 0 mm. In series [2] (Rattus norvegicus, 1 h), the inhibition at 5 mg/kg came to 100% and the inhibition at 10 mg/kg was determined as 100%. Further, in series [3], the “Acute toxicity, deaths” value was “None of the animals died”.

Regarding `COc1cc2c(cc1OC)CC[N+](Cc1cc(OC)c(OC)c(OC)c1)=C2.[Cl-]` [C, 2-(3,4,5-Trimethoxybenzyl)-6,7-dimethoxy-3,4-dihydro-isoquinolinium chloride], the toxic side effects result in series [1] (in vivo, po, 10 mg/kg) is “do not show any toxic side effects”. The “Intensity of Aggregation” value in series [2] (setting [6]) was 10 mm. Further, in series [2] (5 mg/kg p.o., rat, 1 hour after administration, collagen), the inhibition at 5 mg/kg was 89%.
